Laboratory results from patent publication US20220274997A1, “PIM KINASE INHIBITOR COMPOSITIONS AND USES THEREOF” (Snap Bio, Inc., priority 2019, published 2022).

Key:
[1] = system: Huh7; experiment: CellTiter-Glo cancer cell growth inhibition, Huh7; type: cell-based
Description: (§1) The CellTiter-Glo® Luminescent Cell Viability Assay is a sensitive homogeneous method to determine the number of viable cells in culture, Detection is based on using the luciferase reaction to measure the amount of ATP from viable cells. The amount of ATP in cells correlates with cell viability. Within minutes after a loss of membrane integrity, cells lose the ability to synthesize ATP, and endogenous ATPases destroy any remaining ATP; thus the levels of ATP fall precipitously. The CellTiter-Glo® Reagent does three things upon addition to cells. It lyses cell membranes to release ATP; it inhibits endogenous ATPases, and it provides luciferin, luciferase and other reagents necessary to measure ATP using a bioluminescent reaction. The unique properties of a proprietary stable luciferase.
(§2) All assays were performed by Reaction Biology Corporation (Malvern, Pa.) or ChemDiv, Inc. (San Diego, Calif.). All cell lines were purchased from American Type Culture Collection (ATCC, Manassas, Va.), except Huh 7 (RIKEN, Toyo, Japan) and HepaRG (Life Technologies, Carlsbad, Calif.).
(§3) Stock solutions ([…]) were diluted with cell culture media to produce 500× serial dilutions and […] of final compound dilutions were added to cells in assay plates to screen a series of 10 doses starting at […]. Final DMSO concentration was 0.2%. Assay plates are centrifuged at 100 rpm, 1 minute and kept at 37° C., 5% CO2, humidified atmosphere. […] Luminescence intensity was measured for each well using the Tecan M 1000 microplate reader after 5 min of incubation with CellTiter-Glo Reagent. The number of viable cells in culture was determined based on quantitation of the ATP present in each culture well. […] The EC50 curves were plotted and […] values were calculated using the GraphPad Prism 4 program based on a sigmoidal dose-response equation.

[2] = system: A673; experiment: CellTiter-Glo cancer cell growth inhibition, A673; type: cell-based
Description: as §1, §2, §3

[3] = system: HepG2; experiment: CellTiter-Glo cancer cell growth inhibition, HepG2; type: cell-based, human
Description: as §1, §2, §3

[4] = biological target: T1, PIM2 (Homo sapiens, UniProt Q9P1W9); experiment: LANCE Ultra kinase assay, PIM2; type: biochemical
T1 construct: purchased ProQinase, Freiburg, Germany 0223-0000-1
Description: (§4) The second assay used was Perkin Elmer's LANCE® Ultra kinase assay which uses a ULight™-labeled peptide substrate and an appropriate Europium-labeled anti-phospho antibody. When the substrate becomes phosphorylated by a kinase of interest, the phosphorylated site on the substrate is recognized by the Europium-labeled anti-phospho antibody. […] The intensity of light emission is proportional to the level of ULight peptide phosphorylation. A kinase inhibitor reduces the FRET signal, thus providing an accurate and sensitive measure of inhibition potency.
(§5) The assay was performed in 384-well plates in two steps: PIM kinases were mixed with the ULight-substrate (CREBtide) in buffer and incubated for 10 min. Subsequently, ATP and molecules of the present disclosure were added in a kinase buffer at the appropriate concentration and the reactions were incubated for 1 hour, at room temperature in the dark. • After 1 h EDTA was added to stop the kinase reaction, Eu-W1024-labeled anti-phosphoserine-CREB (Ser133) Antibody (anti-phosphoCREBtide specific antibody) was added to the reaction in LANCE Detection buffer. The mixture was allowed to incubate for 30 min to allow binding of the antibody to the phosphorylated site before the plate was read using a Tecan microplate reader
(§6) Kinase Assay Buffer—50 mM HEPES pH7.0.1 mM EGTA, 10 mM MgCl2, 0.01% BRU-35.
(§7) The inhibitory activity of each compound against PIM kinases was measured with the LANCE® Ultra Kinase Assays by ChemDiv, Inc. (San Diego, Calif.).

[5] = system: HepaRG; experiment: CellTiter-Glo cancer cell growth inhibition, HepaRG; type: cell-based; settings: Homo sapiens, 72 h
Description: as §1, §2, §3

[6] = biological target: T2, PIM1 (Homo sapiens, UniProt P11309); experiment: LANCE Ultra kinase assay, PIM1; type: biochemical
T2 construct: purchased ProQinase, Freiburg, Germany 0186-0000-1
Description: as §4, §5, §6, §7

[7] = biological target: T3, PIM3 (Homo sapiens, UniProt Q86V86); experiment: LANCE Ultra kinase assay, PIM3; type: biochemical; settings: for Selectivity among PIM1-3 (EC50 plots, FIGS. 2A, 2B): LANCE Ultra assay; for IC50: LANCE assay
T3 construct: purchased SignalChem, Richmond, Canada P37-10BG
Description: as §4, §5, §6, §7

[8] = system: Hepa1-6 mouse liver cancer cells; experiment: Hepa1-6 liver cancer xenograft mice; type: in vivo
Description: Hepa1-6 mouse liver cancer cells are suspended in Hank's balanced salt solution (HBSS)(2×10^7 cells/mL), and the suspension (100 μL) was subcutaneously injected into the back flank of six female CD57 immunocompetent mice. After growing for 21 days, the tumors were resected, cut into small pieces, and inserted under the skin on each back flank of twelve female CD57 mice (24 tumors total). Mice were maintained for 15 days following tumor insertion to establish robust and consistent tumor growth. The mice were randomly split into six groups of two mice each (two tumors per mouse). Alter establishment of the Hepa1-6 xenografts in CD57 mice, tumor dimensions were measured every 2 days using micrometer calipers. Four groups were treated with compound 49 (PO: 25 mg/kg and 50 mg/k; IP: 10 mg/kg and 25 mg/kg) by both oral (PO, gavage) and intraperitoneal (IP) administration once per day (q.d.) and two control groups were administered vehicle only through the same routes for 10 consecutive days. Mice are weighed daily, starting from the date of Hepa1-6 tumor insertion (day 0). At 25 days after subcutaneous inoculation with Hepa1-6 tumors, mice were euthanized via carbon dioxide asphyxiation and all tumors were excised immediately following death, weighed and measured, and then snap-frozen in liquid nitrogen. Tumor volume (TV) was calculated by the following formula: TV=0.5ab^2, where a is tumor length in mm, and b is tumor width in mm. […] Body weight of mice in all groups was maintained within 10% of day 0 baseline.

[9] = growth inhibition, 72 hours, CellTiter-Glo

T2 sequence (P11309 whole entry): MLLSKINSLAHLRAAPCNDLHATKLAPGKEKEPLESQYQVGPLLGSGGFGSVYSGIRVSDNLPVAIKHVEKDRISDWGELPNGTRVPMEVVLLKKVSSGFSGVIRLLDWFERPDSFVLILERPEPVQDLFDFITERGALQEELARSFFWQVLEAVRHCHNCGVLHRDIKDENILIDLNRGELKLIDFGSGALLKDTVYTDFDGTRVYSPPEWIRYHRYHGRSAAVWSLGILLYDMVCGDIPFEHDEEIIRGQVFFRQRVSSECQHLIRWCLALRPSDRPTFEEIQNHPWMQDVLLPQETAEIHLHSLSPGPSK
T1 sequence (Q9P1W9 whole entry): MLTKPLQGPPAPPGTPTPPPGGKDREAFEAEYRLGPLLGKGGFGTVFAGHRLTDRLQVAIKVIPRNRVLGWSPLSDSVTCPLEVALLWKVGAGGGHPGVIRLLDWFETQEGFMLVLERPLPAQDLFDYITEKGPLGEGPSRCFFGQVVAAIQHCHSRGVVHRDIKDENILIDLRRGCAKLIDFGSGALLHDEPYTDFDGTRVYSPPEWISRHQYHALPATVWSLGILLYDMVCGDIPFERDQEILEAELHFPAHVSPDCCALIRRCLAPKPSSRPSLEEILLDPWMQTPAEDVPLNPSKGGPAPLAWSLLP

## N[C@@H]1CCCN(c2c(/C=C3\SC(=O)NC3=O)cccc2-c2ccccc2)C1 [AZD-1208, reference compound]
[1]; [9]
  EC50: 13500 nM
[2]; [9]
  EC50: 19700 nM
[3]; [9]
  EC50: 28000 nM

## O=C1NC(=O)c2c1c1c3ccc(O)cc3[nH]c1c1c2c2ccc(O)cc2n1CCN1CCOCC1 [Compound 32, 2,10-dihydroxy-12-(2-morpholinoethyl)-12,13-dihydro-5H-indolo[2,3-a]pyrrolo[3,4-c]carbazole-5,7(6H)-dione]
[1]; Homo sapiens, Huh-7, 72 h
  EC50: 240 nM
[2]; Homo sapiens, A673, 72 h
  EC50: 37 nM
[4]; ATP 0.1 mM
  IC50: 36 nM
[4]; ATP 1 mM
  IC50: 480 nM
[5]
  EC50: 250 nM
[6]; ATP 0.1 mM
  IC50: 0.81 nM
[6]; ATP 1 mM
  IC50: 2 nM
[3]; Homo sapiens, HepG2, 72 h
  EC50: 570 nM
[7]
  Selectivity among PIM1-3 (EC50 plots, FIGS. 2A, 2B): PIM1 and PIM3 selectivity
[7]; ATP 0.1 mM
  IC50: 1.2 nM
[7]; ATP 1 mM
  IC50: 4.9 nM

## O=C1NC(=O)c2c1c1c3cc(F)c(O)cc3[nH]c1c1c2c2cc(F)c(O)cc2n1CCN1CCOCC1 [Compound 37, 3,9-difluoro-2,10-dihydroxy-12-(2-morpholinoethyl)-12,13-dihydro-5H-indolo[2,3-a]pyrrolo[3,4-c]carbazole-5,7(6H)-dione]
[1]; Homo sapiens, Huh-7, 72 h
  EC50: 77 nM
[2]; Homo sapiens, A673, 72 h
  EC50: 2.2 nM
[4]; ATP 0.1 mM
  IC50: 13 nM
[4]; ATP 1 mM
  IC50: 180 nM
[5]
  EC50: 16 nM
[6]; ATP 0.1 mM
  IC50: 0.7 nM
[6]; ATP 1 mM
  IC50: 0.93 nM
[3]; Homo sapiens, HepG2, 72 h
  EC50: 54 nM
[7]; ATP 0.1 mM
  IC50: 1.1 nM
[7]; ATP 1 mM
  IC50: 5 nM

## O=C1NC(=O)c2c1c1c3ccncc3[nH]c1c1c2c2ccc(O)cc2n1CCN1CCOCC1 [Compound 41]
[1]; Homo sapiens, Huh-7, 72 h
  EC50: 100 nM
[2]; Homo sapiens, A673, 72 h
  EC50: 4.4 nM
[4]; ATP 1 mM
  IC50: 674 nM
[6]; ATP 1 mM
  IC50: 0.42 nM
[7]; ATP 1 mM
  IC50: 1.6 nM

## O=C1NC(=O)c2c1c1c3ccc(O)cc3[nH]c1c1c2c2ccncc2n1CCN1CCOCC1 [Compound 42]
[1]; Homo sapiens, Huh-7, 72 h
  EC50: 100 nM
[2]; Homo sapiens, A673, 72 h
  EC50: 5 nM
[4]; ATP 1 mM
  IC50: 18 nM
[6]; ATP 1 mM
  IC50: 0.16 nM
[7]; ATP 1 mM
  IC50: 1.9 nM

## O=C1NC(=O)c2c1c1c3cc(F)ccc3[nH]c1c1c2c2cc(F)ccc2n1CCN1CCOCC1 [Compound 49, 3,9-difluoro-12-(2-morpholin-4-ylethyl)-12,13-dihydro-5H-indolo[2,3-a]pyrrolo[3,4-c]carbazole-5,7(6H)-dione]
[1]; Homo sapiens, Huh-7, 72 h
  EC50: 100 nM
[2]; Homo sapiens, A673, 72 h
  EC50: 57 nM
[4]; ATP 0.1 mM
  IC50: > 1000 nM
[5]
  EC50: > 10000 nM
[6]; ATP 0.1 mM
  IC50: 4 nM
[8]; IP injection 25 mg/kg q.d., 10 days, CD57 mice
  Reduction of tumor size relative to control tumors: up to 50%
[8]; PO dosing (25 mg/kg and 50 mg/kg) q.d., CD57 mice
  Tumor reduction: No tumor reduction was observed
[8]; all groups (PO 25, 50 mg/kg; IP 10, 25 mg/kg)
  Body weight change vs day 0 baseline: ≤ 10%
[8]; lower doses (IP 10 mg/kg) q.d., CD57 mice
  Tumor reduction: No tumor reduction was observed
[3]; Homo sapiens, HepG2, 72 h
  EC50: 40 nM
[7]; ATP 0.1 mM
  IC50: 0.7 nM

## O=C1NC(=O)c2c1c1c3cc(F)ccc3[nH]c1c1c2c2cc(F)ccc2n1CCN1CCCCC1 [Compound 51, 3,9-difluoro-12-(2-piperidin-1-ylethyl)-12,13-dihydro-5H-indolo[2,3-a]pyrrolo[3,4-c]carbazole-5,7(6H)-dione]
[4]; ATP 0.1 mM
  IC50: > 1000 nM
[6]; ATP 0.1 mM
  IC50: 3 nM
[7]; ATP 0.1 mM
  IC50: 0.8 nM

## C[C@@H]1CCC[C@H](C)N1CCn1c2ccc(F)cc2c2c3c(c4c5cc(F)ccc5[nH]c4c21)C(=O)NC3=O [Compound 53, 12-{2-[(2R,6S)-2,6-dimethylpiperidin-1-yl]ethyl}-3,9-difluoro-12,13-dihydro-5H-indolo[2,3-a]pyrrolo[3,4-c]carbazole-5,7(6H)-dione]
[4]; ATP 0.1 mM
  IC50: > 1000 nM
[6]; ATP 0.1 mM
  IC50: 3 nM
[7]
  Selectivity among PIM1-3 (EC50 plots, FIGS. 2A, 2B): PIM1 and PIM3 selectivity
[7]; ATP 0.1 mM
  IC50: 2.4 nM

## O=C1NC(=O)c2c1c1c3ccc(O)cc3[nH]c1c1c2c2ccc(O)cc2n1CCN1CCCCC1 [Compound 56, 2,10-dihydroxy-12-(2-piperidinoethyl)-12,13-dihydro-5H-indolo[2,3-a]pyrrolo[3,4-c]carbazole-5,7(6H)-dione]
[1]; Homo sapiens, Huh-7, 72 h
  EC50: 484 nM
[2]; Homo sapiens, A673, 72 h
  EC50: 35 nM
[4]; ATP 0.1 mM
  IC50: 50 nM
[5]
  EC50: 77 nM
[6]; ATP 0.1 mM
  IC50: 0.7 nM
[3]; Homo sapiens, HepG2, 72 h
  EC50: 315 nM
[7]; ATP 0.1 mM
  IC50: 1 nM

## C[C@@H]1CCC[C@H](C)N1CCn1c2cc(O)c(F)cc2c2c3c(c4c5cc(F)c(O)cc5[nH]c4c21)C(=O)NC3=O [Compound 59, 12-{2-[(2R,6S)-2,6-dimethylpiperidin-1-yl]ethyl}-3,9-difluoro-2,10-dihydroxy-12,13-dihydro-5H-indolo[2,3-a]pyrrolo[3,4-c]carbazole-5,7(6H)-dione]
[1]; Homo sapiens, Huh-7, 72 h
  EC50: 925 nM
[2]; Homo sapiens, A673, 72 h
  EC50: 3.1 nM
[4]; ATP 0.1 mM
  IC50: 37 nM
[5]
  EC50: 20 nM
[6]; ATP 0.1 mM
  IC50: 0.1 nM
[3]; Homo sapiens, HepG2, 72 h
  EC50: 266 nM
[7]; ATP 0.1 mM
  IC50: 3 nM

## CNC(=O)c1cc(Oc2ccc(NC(=O)Nc3ccc(Cl)c(C(F)(F)F)c3)c(F)c2)ccn1 [Regorafenib, reference compound]
[1]; Homo sapiens, Huh-7, 72 h
  EC50: 4400 nM
[2]; Homo sapiens, A673, 72 h
  EC50: 30000 nM
[5]
  EC50: 2300 nM
[3]; Homo sapiens, HepG2, 72 h
  EC50: 4300 nM

## CNC(=O)c1cc(Oc2ccc(NC(=O)Nc3ccc(Cl)c(C(F)(F)F)c3)cc2)ccn1 [Sorafenib, reference compound]
[1]; Homo sapiens, Huh-7, 72 h
  EC50: 2600 nM
[2]; Homo sapiens, A673, 72 h
  EC50: 18000 nM
[5]
  EC50: 1400 nM
[3]; Homo sapiens, HepG2, 72 h
  EC50: 2300 nM
